Test [1] has as its target T1, D1R-Rluc with β-arrestin-2-Venus (Homo sapiens, UniProt P21728).
T1 construct: gene DRD1; D1R with N-terminal signal peptide and Flag or Myc tag, fused to Renilla luciferase 8; GRK2 co-transfected; HEK-293T cells; with Beta-arrestin-2
The format is cell-based. The note with it: agonist; GRK2 co-transfected; HEK-293T cells.

The next test deals with T2, D3R, Go activation (Homo sapiens, UniProt P35462).
T2 construct: gene DRD3; N-terminal signal peptide and Flag or Myc tag; co-transfected GαoA91-Rluc, Gγ2-GFP10 and untagged Gβ2; HEK-293T cells
T2 sequence (P35462 whole entry): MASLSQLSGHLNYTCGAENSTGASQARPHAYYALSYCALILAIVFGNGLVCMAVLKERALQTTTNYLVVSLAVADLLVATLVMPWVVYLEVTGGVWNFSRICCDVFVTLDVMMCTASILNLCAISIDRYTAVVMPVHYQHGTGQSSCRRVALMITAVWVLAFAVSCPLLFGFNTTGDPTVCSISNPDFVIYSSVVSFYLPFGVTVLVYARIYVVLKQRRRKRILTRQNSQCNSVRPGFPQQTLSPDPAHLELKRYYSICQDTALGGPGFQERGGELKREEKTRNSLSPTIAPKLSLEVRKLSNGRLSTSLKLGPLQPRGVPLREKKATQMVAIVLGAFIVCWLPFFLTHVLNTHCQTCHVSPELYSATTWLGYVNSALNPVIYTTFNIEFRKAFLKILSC
T2 sequence (P09471 2-354 partner): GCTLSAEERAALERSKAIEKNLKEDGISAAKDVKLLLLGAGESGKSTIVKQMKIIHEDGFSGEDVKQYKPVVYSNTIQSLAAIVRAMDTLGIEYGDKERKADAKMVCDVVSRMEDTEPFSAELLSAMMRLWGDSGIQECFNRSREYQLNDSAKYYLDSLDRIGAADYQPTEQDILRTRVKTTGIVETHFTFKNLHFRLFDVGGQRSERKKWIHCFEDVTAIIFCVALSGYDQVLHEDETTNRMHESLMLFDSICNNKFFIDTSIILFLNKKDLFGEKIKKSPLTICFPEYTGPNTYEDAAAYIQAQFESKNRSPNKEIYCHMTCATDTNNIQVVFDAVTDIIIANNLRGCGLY
The test is described as follows: BRET Go activation (GαoA-Rluc / γ2-GFP10). Format: cell-based. The note with it: partial agonist; HEK-293T cells. In general terms: In BRET a luciferase serves as donor, and the signal depends on an acceptor being close.

Test [2] concerns the target T3, D2R (D2SR), Go activation (Homo sapiens, UniProt P14416).
T3 construct: gene DRD2
The note with it: partial agonist; HEK-293T cells.

For test [3], the target named is T4, D1R-Rluc with Golf-Venus (D1L_GolfV) (Homo sapiens, UniProt P21728).
T4 construct: gene DRD1; D1R with N-terminal signal peptide and Flag or Myc tag, fused to Renilla luciferase 8; Gαolf with inserted Venus; G protein chaperone Ric8B co-transfected, untagged Gβ2 and Gγ7 available; HEK-293T cells
T4 sequence (P21728 whole entry, the tested form may be a part): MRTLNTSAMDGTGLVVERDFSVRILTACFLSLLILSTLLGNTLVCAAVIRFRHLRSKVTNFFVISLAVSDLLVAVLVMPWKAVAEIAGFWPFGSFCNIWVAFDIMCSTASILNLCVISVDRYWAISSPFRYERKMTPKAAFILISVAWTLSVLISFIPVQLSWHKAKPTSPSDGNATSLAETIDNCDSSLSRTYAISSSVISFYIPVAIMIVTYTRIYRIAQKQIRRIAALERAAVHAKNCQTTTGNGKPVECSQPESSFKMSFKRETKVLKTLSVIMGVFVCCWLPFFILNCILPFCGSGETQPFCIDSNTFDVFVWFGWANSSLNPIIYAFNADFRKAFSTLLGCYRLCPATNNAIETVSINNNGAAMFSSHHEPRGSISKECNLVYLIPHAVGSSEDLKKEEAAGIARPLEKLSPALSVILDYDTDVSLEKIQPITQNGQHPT
T4 sequence (P38405 2-381 partner): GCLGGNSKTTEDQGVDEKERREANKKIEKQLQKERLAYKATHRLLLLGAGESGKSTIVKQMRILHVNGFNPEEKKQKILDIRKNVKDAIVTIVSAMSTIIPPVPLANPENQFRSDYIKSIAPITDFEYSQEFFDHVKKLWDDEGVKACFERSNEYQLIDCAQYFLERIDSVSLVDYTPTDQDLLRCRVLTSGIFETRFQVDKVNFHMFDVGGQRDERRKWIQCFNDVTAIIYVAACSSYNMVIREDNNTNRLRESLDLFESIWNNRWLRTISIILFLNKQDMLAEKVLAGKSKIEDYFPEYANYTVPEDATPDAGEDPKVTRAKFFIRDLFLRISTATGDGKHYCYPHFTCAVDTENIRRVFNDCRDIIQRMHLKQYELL
The test is described as follows: BRET receptor-Gα engagement, D1R-Rluc / Golf-Venus. The format is cell-based. The note with it: antagonist against […] SKF81297; HEK-293T cells.

The structures appear in SMILES notation.

From publication PMC5799184, “Gs- versus Golf-dependent functional selectivity mediated by the dopamine D1 receptor” (Nature Communications, 2018) come the findings set out here.

T1 sequence (P21728 whole entry, the tested form may be a part): as the sequence (P21728 whole entry, the tested form may be a part) above
T1 sequence (P32121 whole entry partner, the tested form may be a part): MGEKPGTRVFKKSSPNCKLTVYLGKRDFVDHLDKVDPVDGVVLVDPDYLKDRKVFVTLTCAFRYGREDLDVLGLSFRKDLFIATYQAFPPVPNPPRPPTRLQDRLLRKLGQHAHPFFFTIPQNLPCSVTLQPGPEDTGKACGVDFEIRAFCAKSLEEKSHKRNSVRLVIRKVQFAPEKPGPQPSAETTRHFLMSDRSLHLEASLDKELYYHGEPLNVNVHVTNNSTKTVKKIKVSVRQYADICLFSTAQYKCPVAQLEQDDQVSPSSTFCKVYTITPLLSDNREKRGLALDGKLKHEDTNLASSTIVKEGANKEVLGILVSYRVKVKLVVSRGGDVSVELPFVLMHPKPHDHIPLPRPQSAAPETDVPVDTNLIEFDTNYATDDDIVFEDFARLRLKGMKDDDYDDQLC
T3 sequence (P14416 1-414 isoform P14416-2): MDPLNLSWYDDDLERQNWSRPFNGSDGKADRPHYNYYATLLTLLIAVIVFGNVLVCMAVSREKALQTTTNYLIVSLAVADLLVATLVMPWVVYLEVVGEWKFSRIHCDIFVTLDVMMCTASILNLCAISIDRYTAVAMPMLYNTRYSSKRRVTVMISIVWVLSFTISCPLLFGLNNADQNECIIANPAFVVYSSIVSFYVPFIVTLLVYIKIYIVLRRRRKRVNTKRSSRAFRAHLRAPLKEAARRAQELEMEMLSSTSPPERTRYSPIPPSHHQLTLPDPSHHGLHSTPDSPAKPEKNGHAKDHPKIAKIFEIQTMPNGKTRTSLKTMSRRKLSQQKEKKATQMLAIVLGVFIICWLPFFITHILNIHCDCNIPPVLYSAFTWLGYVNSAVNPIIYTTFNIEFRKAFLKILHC
T3 sequence (P09471 2-354 partner): as the sequence (P09471 2-354 partner) above

Regarding `NC[C@@H]1O[C@H](C23CC4CC(CC(C4)C2)C3)Cc2c1ccc(O)c2O` [A77636], the EC50 entry in test [1] was “A77636 and SKF82958 maintained their high potencies and efficacies in the β-arrestin-2 recruitment assay”. Turning to `Oc1cc2c(cc1O)C1c3ccccc3CNC1CC2` (centres unmarked) [DHX], the EC50 result was “less efficacious at D2R and D3R-mediated Go activation than at D1R-mediated Gs activation” at D3R, Go activation; “DHX and NPA behaved similarly to Gs engagement in terms of efficacy and potency” in test [1]; “less efficacious at D2R and D3R-mediated Go activation than at D1R-mediated Gs activation” in test [2].

Consider `CCCN1CCc2cccc3c2[C@H]1Cc1ccc(O)c(O)c1-3` [NPA], for which the EC50 entry in test [1] was “DHX and NPA behaved similarly to Gs engagement in terms of efficacy and potency”. Consider `CN1CCc2cc(Cl)c(O)cc2[C@@H](c2ccccc2)C1` [SCH23390], for which, in test [3], the IC50 result is “Dose-response curves of BRET between D1R-Rluc and Golf-Venus (same color scheme)”.

As to `Oc1cc2c(cc1O)C(c1ccccc1)CNCC2` (centres unmarked) [SKF38393], the EC50 entry in test [1] is “SKF81297 and SKF38393 showed reduced and minimal β-arrestin-2 recruitment, respectively”. Same read-out and setting: in the case of `C=CCN1CCc2c(cc(O)c(O)c2Cl)C(c2ccccc2)C1` (centres unmarked) [SKF82958] it was “A77636 and SKF82958 maintained their high potencies and efficacies in the β-arrestin-2 recruitment assay”.
